Literature values, collected in article PMC9847093 (Protein Science : A Publication of the Protein Society, 2023).

Settings: for pKa of monomers used to calculate theoretical number of charges per AOS: M and G monomers; for pKa: ref Draget et al., [1994]

| pKa of monomers used to calculate theoretical number of charges per AOS | pKa | SMILES |
| --- | --- | --- |
| 3.65 | 3.7 | O=C(O)[C@@H]1O[C@@H](O)[C@@H](O)[C@@H](O)[C@@H]1O [G, α‐L‐guluronate] |
| 3.38 | 3.4 | O=C(O)[C@H]1O[C@@H](O)[C@@H](O)[C@@H](O)[C@@H]1O [M, β‐D‐mannuronate] |
